# Results: EPA's ToxRefDB 2
# Columns and labels:
# [1] = tested on: mouse; conditions: Subchronic oral toxicity in rodents, b6c3f1, Feed, dose end: 13 week, group: systemic
# [2] = tested on: mouse; conditions: Subchronic oral toxicity in rodents, cd1, Water, dose end: 90 day, group: systemic, systemic / hematology / leukocyte (wbc) count differential / leukocyte (wbc)
# [3] = tested on: rat; conditions: Carcinogenicity, fischer, Oral, Feed, dose end: 2 year, group: systemic
# [4] = tested on: rat; conditions: Prenatal developmental toxicity study, fischer, Oral, Gavage/Intubation, dose end: 15 GD
# [5] = tested on: mouse; conditions: Carcinogenicity, b6c3f1, Oral, Feed, dose end: 2 year, group: systemic
# [6] = tested on: rat; conditions: Subchronic oral toxicity in rodents, fischer, Feed, dose end: 13 week, group: systemic
# [7] = tested on: rat; conditions: Multigenerational reproductive toxicity study, wistar, Oral, Feed, dose end: 2 generation
# [8] = tested on: rabbit; conditions: Sub-acute repeat dose toxicity; Injection; Intravenous; dose end: 5 day; group: systemic; systemic / in life observation / clinical signs / altered breathing rate + systemic / in life observation / clinical signs / labored …
# [9] = tested on: rabbit; conditions: Prenatal developmental toxicity study, Injection, Intravenous, dose end: 18 GD
# [10] = tested on: rat; conditions: Sub-acute repeat dose toxicity, Injection, Intravenous, dose end: 5 day, group: systemic
# [11] = systemic / pathology microscopic / liver / necrosis
# [12] = systemic / in life observation / food consumption / food consumption
# [13] = group: developmental, developmental / developmental malformation / bone / delayed ossification + developmental / developmental malformation / bone / unossified + …
# [14] = group: maternal, systemic / in life observation / body weight / body weight + systemic / in life observation / body weight / body weight gain + systemic / in…
# [15] = group: maternal, systemic / in life observation / body weight / body weight gain + systemic / in life observation / clinical signs / urogenital staining
# [16] = systemic / in life observation / body weight / body weight
# [17] = systemic / in life observation / body weight / body weight + systemic / in life observation / food consumption / food consumption
# [18] = systemic / in life observation / body weight / body weight + systemic / pathology microscopic / bone marrow / atrophy + systemic / in life …
# [19] = group: offspring, systemic / pathology gross / mammary gland / discolored + systemic / pathology gross / mammary gland / enlarged
# [20] = group: parental, systemic / in life observation / clinical signs / body surface staining + systemic / in life observation / body weight / body weight + …
# [21] = group: parental, systemic / organ weight / pituitary gland / absolute + systemic / organ weight / pituitary gland / relative to body weight
# [22] = group: reproductive, reproductive / reproductive performance / implantations / implantations
# [23] = group: developmental, developmental / developmental malformation / bone / incomplete ossification + systemic / in life observation / body weight / fetal weight
# [24] = systemic / pathology microscopic / ovary / degeneration + systemic / clinical chemistry / albumin / albumin + systemic / clinical chemistry…
structure (smiles),measurement,setting,value
"Oc1ccc(Cl)cc1Cl [2,4-Dichlorophenol]",NOAEL,[1]; systemic / in life observation / body weight / body weight + systemic / in life observation / clinical signs / fur (altered appearance) + …,1500 mg/kg/day
same,LOAEL,[1]; systemic / in life observation / body weight / body weight + systemic / pathology microscopic / liver / necrosis + systemic / pathology …,3000 mg/kg/day
same,LEL,[1]; [11],375 mg/kg/day
same,NEL,[1]; [11],< 375 mg/kg/day
same,LEL,[2],383 mg/kg/day
same,LOAEL,[2],> 383 mg/kg/day
same,NEL,[2],114 mg/kg/day
same,NOAEL,[2],≥ 383 mg/kg/day
same,LEL,[3]; [12],120 mg/kg/day
same,NEL,[3]; [12],< 120 mg/kg/day
same,LOAEL,[3]; systemic / pathology microscopic / nose / degeneration,210 mg/kg/day
same,LEL,[4]; [13],750 mg/kg/day
same,LOAEL,[4]; [13],> 750 mg/kg/day
same,NEL,[4]; [13],375 mg/kg/day
same,NOAEL,[4]; [13],≥ 750 mg/kg/day
same,LOAEL,[4]; [14],> 750 mg/kg/day
same,NOAEL,[4]; [14],≥ 750 mg/kg/day
same,LEL,[4]; [15],200 mg/kg/day
same,NEL,[4]; [15],< 200 mg/kg/day
same,LOAEL,[5]; [16],430 mg/kg/day
same,NOAEL,[5]; [16],< 430 mg/kg/day
same,LEL,[5]; [17],430 mg/kg/day
same,NEL,[5]; [17],< 430 mg/kg/day
same,LOAEL,[6]; systemic / in life observation / body weight / body weight + systemic / pathology microscopic / bone marrow / atrophy,1000 mg/kg/day
same,NEL,[6]; [18],250 mg/kg/day
same,NOAEL,[6]; [18],500 mg/kg/day
same,LEL,[6]; systemic / pathology microscopic / bone marrow / atrophy,500 mg/kg/day
same,LOAEL,"[7]; group: offspring, developmental / developmental malformation / eye / open eye + systemic / in life observation / body weight / offspring (pup) weight",543 mg/kg/day
same,NOAEL,"[7]; group: offspring, developmental / developmental malformation / eye / open eye + systemic / in life observation / body weight / offspring (pup) weight + …",134 mg/kg/day
same,LEL,[7]; [19],49.1 mg/kg/day
same,NEL,[7]; [19],< 49.1 mg/kg/day
same,LOAEL,[7]; [20],543 mg/kg/day
same,NOAEL,[7]; [20],134 mg/kg/day
same,LEL,[7]; [21],33.4 mg/kg/day
same,NEL,[7]; [21],< 33.4 mg/kg/day
same,LEL,[7]; [22],768 mg/kg/day
same,LOAEL,[7]; [22],768 mg/kg/day
same,NEL,[7]; [22],194 mg/kg/day
same,NOAEL,[7]; [22],194 mg/kg/day
NC(N)=NC(=O)c1cnn(-c2cccc3ncccc23)c1C1CC1 [Zoniporide],LOAEL,[8],> 250 mg/kg/day
same,NEL,[8],50 mg/kg/day
same,NOAEL,[8],≥ 250 mg/kg/day
same,LEL,[9]; [23],100 mg/kg/day
same,LOAEL,[9]; [23],> 100 mg/kg/day
same,NOAEL,[9]; [23],≥ 100 mg/kg/day
same,LEL,[9]; [14],100 mg/kg/day
same,LOAEL,[9]; [14],> 100 mg/kg/day
same,NEL,[9]; [14],30 mg/kg/day
same,NOAEL,[9]; [14],≥ 100 mg/kg/day
same,NEL,[10]; systemic / pathology microscopic / blood vessel / inflammation + systemic / pathology microscopic / blood vessel / necrosis,< 25 mg/kg/day
same,LOAEL,[10]; [24],> 250 mg/kg/day
same,NOAEL,[10]; [24],≥ 250 mg/kg/day
